Source: patent US8912176B2 (Evotec AG, priority 2009, dated 2014)

Target: human H3 receptor (Homo sapiens, UniProt Q9Y5N1)
Assay: cAMP quantification assay for human H3 receptor (DiscoveRx cAMP XS+)

human H3 receptor, sequence (Q9Y5N1 whole entry): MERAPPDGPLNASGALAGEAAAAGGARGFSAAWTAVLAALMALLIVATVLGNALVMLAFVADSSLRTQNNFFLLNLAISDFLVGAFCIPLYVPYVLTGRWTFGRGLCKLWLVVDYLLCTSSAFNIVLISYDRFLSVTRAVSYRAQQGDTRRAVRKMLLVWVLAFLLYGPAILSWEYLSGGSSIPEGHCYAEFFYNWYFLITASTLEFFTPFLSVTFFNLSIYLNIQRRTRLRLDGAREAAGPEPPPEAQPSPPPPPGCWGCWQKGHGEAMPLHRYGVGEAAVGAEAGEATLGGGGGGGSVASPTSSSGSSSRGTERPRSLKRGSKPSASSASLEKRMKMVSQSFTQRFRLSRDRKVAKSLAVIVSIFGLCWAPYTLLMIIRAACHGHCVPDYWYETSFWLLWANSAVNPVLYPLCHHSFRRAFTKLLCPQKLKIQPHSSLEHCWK

SMILES	IC50
O=C(CN1CCCCC1)N1CC(C(=O)N2CCCN(C3CCC3)CC2)C1 [Example 16, 1-cyclobutyl-4-{[1-(piperidin-1-ylacetyl)azetidin-3-yl]carbonyl}-1,4-diazepane]	< 50 nM
O=C(OCc1ccccc1)N1CC(C(=O)N2CCCN(C3CCC3)CC2)C1 [Example 1, benzyl 3-[(4-cyclobutyl-1,4-diazepan-1-yl)carbonyl]azetidine-1-carboxylate]	< 50 nM
CC1(C)COC(c2ccc(C(=O)N3CC(C(=O)N4CCCN(C5CCC5)CC4)C3)cc2)=N1 [Example 42, 1-cyclobutyl-4-[(1-{[4-(4,4-dimethyl-4,5-dihydro-1,3-oxazol-2-yl)phenyl]carbonyl}azetidin-3-yl)carbonyl]-1,4-diazepane]	< 50 nM
O=C(CN1CCOCC1)N1CC(C(=O)N2CCCN(C3CCC3)CC2)C1 [Example 17, 1-cyclobutyl-4-{[1-(morpholin-4-ylacetyl)azetidin-3-yl]carbonyl}-1,4-diazepane]	< 50 nM
O=C(NCC1CCOCC1)N1CC(C(=O)N2CCCN(C3CCC3)CC2)C1 [Example 57, 3-[(4-cyclobutyl-1,4-diazepan-1-yl)carbonyl]-N-(tetrahydro-2H-pyran-4-ylmethyl)azetidine-1-carboxamide]	< 50 nM
O=C(CN1CCC(F)(F)CC1)N1CC(C(=O)N2CCCN(C3CCC3)CC2)C1 [Example 20, 1-cyclobutyl-4-({1-[(4,4-difluoropiperidin-1-yl)acetyl]azetidin-3-yl}carbonyl)-1,4-diazepane]	< 50 nM
O=C(C1CN(C(=O)C2CCOCC2)C1)N1CCCN(C2CCC2)CC1 [Example 5, 1-cyclobutyl-4-{[1-(tetrahydro-2H-pyran-4-ylcarbonyl)azetidin-3-yl]carbonyl}-1,4-diazepane]	< 50 nM
Cc1ccc(CC(=O)N2CC(C(=O)N3CCCN(C4CCC4)CC3)C2)cn1 [Example 43, 1-cyclobutyl-4-({1-[(6-methylpyridin-3-yl)acetyl]azetidin-3-yl}carbonyl)-1,4-diazepane]	< 50 nM
O=C(CN1CCC(F)(F)C1)N1CC(C(=O)N2CCCN(C3CCC3)CC2)C1 [Example 19, 1-cyclobutyl-4-({1-[(3,3-difluoropyrrolidin-1-yl)acetyl]azetidin-3-yl}carbonyl)-1,4-diazepane]	< 50 nM
CC(C)c1ccc(C(=O)N2CC(C(=O)N3CCCN(C4CCC4)CC3)C2)cc1 [Example 38, 1-cyclobutyl-4-[(1-{[4-(1-methylethyl)phenyl]carbonyl}azetidin-3-yl)carbonyl]-1,4-diazepane]	< 50 nM
O=C(C1CN(C(=O)C2CCC(F)(F)CC2)C1)N1CCCN(C2CCC2)CC1 [Example 29, 1-cyclobutyl-4-({1-[(4,4-difluorocyclohexyl)carbonyl]azetidin-3-yl}carbonyl)-1,4-diazepane]	< 50 nM
Cc1ccc(C(=O)N2CC(C(=O)N3CCCN(C(C)C)CC3)C2)cn1 [Example 79, 1-(1-methylethyl)-4-({1-[(6-methylpyridin-3-yl)carbonyl]azetidin-3-yl}carbonyl)-1,4-diazepane]	100 to 5000 nM
Cc1ccc(C(=O)N2CC(C(=O)N3CCCN(C4CCCC4)CC3)C2)cn1 [Example 81, 1-cyclopentyl-4-({1-[(6-methylpyridin-3-yl)carbonyl]azetidin-3-yl}carbonyl)-1,4-diazepane]	< 50 nM
Cc1nnc(-c2ccc(C(=O)N3CC(C(=O)N4CCCN(C5CCC5)CC4)C3)cc2)o1 [Example 31, 1-cyclobutyl-4-[(1-{[4-(5-methyl-1,3,4-oxadiazol-2-yl)phenyl]carbonyl}azetidin-3-yl)carbonyl]-1,4-diazepane]	< 50 nM
O=C(C1CN(S(=O)(=O)c2ccccc2)C1)N1CCCN(C2CCC2)CC1 [Example 26, 1-cyclobutyl-4-{[1-(phenylsulfonyl)azetidin-3-yl]carbonyl}-1,4-diazepane]	< 50 nM
O=C(c1ccc(OC2CCOCC2)cc1)N1CC(C(=O)N2CCCN(C3CCC3)CC2)C1 [Example 11, 1-cyclobutyl-4-[(1-{[4-(tetrahydro-2H-pyran-4-yloxy)phenyl]carbonyl}azetidin-3-yl)carbonyl]-1,4-diazepane]	< 50 nM
Cc1noc(-c2ccc(C(=O)N3CC(C(=O)N4CCCN(C5CCC5)CC4)C3)cc2)n1 [Example 41, 1-cyclobutyl-4-[(1-{[4-(3-methyl-1,2,4-oxadiazol-5-yl)phenyl]carbonyl}azetidin-3-yl)carbonyl]-1,4-diazepane]	< 50 nM
Cc1ncc(C(=O)N2CC(C(=O)N3CCCN(C4CCC4)CC3)C2)cn1 [Example 8, 1-cyclobutyl-4-({1-[(2-methylpyrimidin-5-yl)carbonyl]azetidin-3-yl}carbonyl)-1,4-diazepane]	< 50 nM
CN(CC1CCOCC1)C(=O)N1CC(C(=O)N2CCCN(C3CCC3)CC2)C1 [Example 61, 3-[(4-cyclobutyl-1,4-diazepan-1-yl)carbonyl]-N-methyl-N-(tetrahydro-2H-pyran-4-ylmethyl)azetidine-1-carboxamide]	< 50 nM
N#Cc1ccc(NC(=O)N2CC(C(=O)N3CCCN(C4CCC4)CC3)C2)cc1 [Example 59, N-(4-cyanophenyl)-3-[(4-cyclobutyl-1,4-diazepan-1-yl)carbonyl]azetidine-1-carboxamide]	< 50 nM

SMILES	IC50
Cc1ccc(C(=O)N2CC(C(=O)N3CCCN(C4CCC4)CC3)C2)cn1 [Example 10, 1-cyclobutyl-4-({1-[(6-methylpyridin-3-yl)carbonyl]azetidin-3-yl}carbonyl)-1,4-diazepane]	< 50 nM
O=C(c1ccc(-c2ccncc2)cc1)N1CC(C(=O)N2CCCN(C3CCC3)CC2)C1 [Example 45, 1-cyclobutyl-4-({1-[(4-pyridin-4-ylphenyl)carbonyl]azetidin-3-yl}carbonyl)-1,4-diazepane]	< 50 nM
COC1CCC(C(=O)N2CC(C(=O)N3CCCN(C4CCC4)CC3)C2)CC1 (mixture of isomers) [Example 28, 1-cyclobutyl-4-({1-[(4-methoxycyclohexyl)carbonyl]azetidin-3-yl}carbonyl)-1,4-diazepane]	< 50 nM
O=C(CC1CCOCC1)N1CC(C(=O)N2CCCN(C3CCC3)CC2)C1 [Example 53, 1-cyclobutyl-4-{[1-(tetrahydro-2H-pyran-4-ylacetyl)azetidin-3-yl]carbonyl}-1,4-diazepane]	100 to 5000 nM
O=C(NCc1ccc(F)cc1)N1CC(C(=O)N2CCCN(C3CCC3)CC2)C1 [Example 58, 3-[(4-cyclobutyl-1,4-diazepan-1-yl)carbonyl]-N-(4-fluorobenzyl)azetidine-1-carboxamide]	< 50 nM
O=C(Cc1ccc(Cl)cc1)N1CC(C(=O)N2CCCN(C3CCC3)CC2)C1 [Example 54, 1-({1-[(4-chlorophenyl)acetyl]azetidin-3-yl}carbonyl)-4-cyclobutyl-1,4-diazepane]	< 50 nM
N#Cc1ccc(C(=O)N2CC(C(=O)N3CCCN(C4CCC4)CC3)C2)cc1 [Example 6, 4-({3-[(4-cyclobutyl-1,4-diazepan-1-yl)carbonyl]azetidin-1-yl}carbonyl)benzonitrile]	< 50 nM
O=C(NCC1CCCCC1)N1CC(C(=O)N2CCCN(C3CCC3)CC2)C1 [Example 56, 3-[(4-cyclobutyl-1,4-diazepan-1-yl)carbonyl]-N-(cyclohexylmethyl)azetidine-1-carboxamide]	< 50 nM
O=C(Oc1ccc(Cl)cc1)N1CC(C(=O)N2CCCN(C3CCC3)CC2)C1 [Example 67, 4-chlorophenyl 3-[(4-cyclobutyl-1,4-diazepan-1-yl)carbonyl]azetidine-1-carboxylate]	< 50 nM
CS(=O)(=O)c1ccc(C(=O)N2CC(C(=O)N3CCCN(C4CCC4)CC3)C2)cc1 [Example 55, 1-cyclobutyl-4-[(1-{[4-(methylsulfonyl)phenyl]carbonyl}azetidin-3-yl)carbonyl]-1,4-diazepane]	< 50 nM
O=C(c1ccc(-n2cncn2)nc1)N1CC(C(=O)N2CCCN(C3CCC3)CC2)C1 [Example 13, 1-cyclobutyl-4-[(1-{[6-(1H-1,2,4-triazol-1-yl)pyridin-3-yl]carbonyl}azetidin-3-yl)carbonyl]-1,4-diazepane]	< 50 nM
O=C(c1ccc(Cn2cncn2)cc1)N1CC(C(=O)N2CCCN(C3CCC3)CC2)C1 [Example 74, 1-cyclobutyl-4-[(1-{[4-(1H-1,2,4-triazol-1-ylmethyl)phenyl]carbonyl}azetidin-3-yl)carbonyl]-1,4-diazepane]	< 50 nM
O=C(c1ccc(-n2ccnc2)nc1)N1CC(C(=O)N2CCCN(C3CCC3)CC2)C1 [Example 12, 1-cyclobutyl-4-[(1-{[6-(1H-imidazol-1-yl)pyridin-3-yl]carbonyl}azetidin-3-yl)carbonyl]-1,4-diazepane]	< 50 nM
CCN1CCCN(C(=O)C2CN(C(=O)c3ccc(C)nc3)C2)CC1 [Example 80, 1-ethyl-4-({1-[(6-methylpyridin-3-yl)carbonyl]azetidin-3-yl}carbonyl)-1,4-diazepane]	< 50 nM
N#Cc1ccc(OCC(=O)N2CC(C(=O)N3CCCN(C4CCC4)CC3)C2)cc1 [Example 22, 4-(2-{3-[(4-cyclobutyl-1,4-diazepan-1-yl)carbonyl]azetidin-1-yl}-2-oxoethoxy)benzonitrile]	< 50 nM
N#Cc1ccc(CC(=O)N2CC(C(=O)N3CCCN(C4CCC4)CC3)C2)cc1 [Example 34, 4-(2-{3-[(4-cyclobutyl-1,4-diazepan-1-yl)carbonyl]azetidin-1-yl}-2-oxoethyl)benzonitrile]	< 50 nM
O=C(C1CN(C(=O)N2CCCCC2)C1)N1CCCN(C2CCC2)CC1 [Example 2, 1-cyclobutyl-4-{[1-(piperidin-1-ylcarbonyl)azetidin-3-yl]carbonyl}-1,4-diazepane]	< 50 nM
CN(CC1CCCCC1)C(=O)N1CC(C(=O)N2CCCN(C3CCC3)CC2)C1 [Example 60, 3-[(4-cyclobutyl-1,4-diazepan-1-yl)carbonyl]-N-(cyclohexylmethyl)-N-methylazetidine-1-carboxamide]	< 50 nM
O=C(c1ccc(-n2cccn2)cc1)N1CC(C(=O)N2CCCN(C3CCC3)CC2)C1 [Example 40, 1-cyclobutyl-4-[(1-{[4-(1H-pyrazol-1-yl)phenyl]carbonyl}azetidin-3-yl)carbonyl]-1,4-diazepane]	< 50 nM
